Consider seven compounds from paper PMC1968602 (British Journal of Cancer, 1993).

A word on the AUC: it is the area under the concentration-time curve, a measure of exposure. High values mean high exposure, low ones low exposure. Broadly, the half-life is the time needed for the level to fall by half in the phase considered. Lower therefore signals fast loss.

One series is described as follows: clinical. As to the method:
(§1) All subjects gave written informed consent to the study. […] No intrapatient dose escalation was performed. […] Bone marrow aspiration was also performed in SCLC patients. […] Arrows indicate the com- pletion of infusion.

For series [1] the following is noted: ref Negoro et al., 1991a, cited from earlier work; for AUC of CPT-11: single agent weekly infusion.
Series [2] relates to diarrhea induced by this combination regimen. The series can be described thus: Antidiarrheal treatment of diarrhea induced by CPT-11 plus cisplatin. The conditions noted are these: for response of grade 3 diarrhea to antidiarrheal agent: diarrhea at CPT-11 90 mg m-2 plus cisplatin 60 mg m-2. The class given is in vivo, human. Here is the method:
as §1

A further series deals with advanced lung cancer. The series can be described thus: Tumour response (World Health Organization criteria) to CPT-11 plus cisplatin. The class given is in vivo, human. Here is the method: as §1
Series [3] has as its system patients with advanced lung cancer.
From the text: All subjects gave written informed consent to the study. […] The study was approved in advance by this hospital's Institu- tional Review Board. […] Patients who stabilised or improved received at least a second course while patients with obvious evidence of disease progression were removed from the study. Before the next course was started, the leukocyte count had to be at least 4,000fil-', and the platelet count had to be at least 100,00011-. If more than 6 weeks passed from the time of the last treatment before these criteria were satisfied, the patients were removed from the study. No intrapatient dose escalation was performed. Once the maximum tolerated dose was reached (90 mg m-2), five additional patients were treated at the preceding dose level of 80mgm2. Evaluation The stage of disease was determined by a complete medical history and physical examination, routine chest radiography, whole-lung tomography, bone scintiscanning, computed tomography of the head, chest, and abdomen, and fiberoptic bronchoscopy. Bone marrow aspiration was also performed in SCLC patients. […] Prior to the first course of treatment, a complete blood count (includ- ing a differential white cell count and platelet count), biochemistry tests (renal and hepatic function, and elec- trolytes), and urinalysis were performed. Then the blood count, biochemistry tests, urinalysis, and chest X-rays were repeated at least once a week after this initial evaluation. Other investigations were repeated as necessary to evaluate marker lesions. After the completion of chemotherapy, each patient was restaged with all the tests used during the initial work-up. The eligibility, evaluability and response of each patient were assessed by extramural reviewers. […] The duration of each response was defined as the number of days from the documentation of response until tumour progression. ECOG common toxicity criteria were used to grade organ damage. The maximum tolerated dose was defined as the dose causing grade 3-4 nonhematologic toxicity (except nausea and vomiting) in at least one-third of the cycles and/or grade 3-4 hematologic toxicity in at least two-third of the cycles included at that level. […] The statistical significance of differ- ences in peak plasma concentrations (Cmax) was determined using unpaired, two-tailed Student's t test. Other statistical analysis was performed using Chi-square test or Fisher's exact test. A P value of less than 0.05 was considered to be statistically significant.
Series [4] has as its system patients with advanced NSCLC. As to conditions: ref Masuda et al., 1992b, cited from earlier work.
Setting [5] is: dose level 1 (CPT-11 60 mg m-2), individual responders.
[6] abbreviates: dose level 2 (CPT-11 80 mg m-2).
Setting [7] is: dose level 3 (CPT-11 90 mg m-2), one responder.
Setting [8] is: CPT-11 60 mg m-2 plus cisplatin 60 mg m-2, 3 patients.
Setting [9] is: CPT-11 80 mg m-2 plus cisplatin 60 mg m-2.
Setting [10] is: CPT-11 80 mg m-2 plus cisplatin 60 mg m-2, 8 patients.
Where [11] appears, read: CPT-11 90 mg m-2 plus cisplatin 60 mg m-2.
Where [12] appears, read: CPT-11 plus cisplatin 60 mg m-2, 28-day cycle.
[13] abbreviates: all dose levels, CPT-11 plus cisplatin 60 mg m-2.

“And” between values parts separate entries of the source, which are not always exact repeats. Equal entries are not always repeated. Where two headings read alike, the source gives them in different places.

Take `CCc1c2c(nc3ccc(O)cc13)-c1cc3c(c(=O)n1C2)COC(=O)[C@]3(O)CC` [SN-38, 7-ethyl-10-hydroxycamptothecin]: the AUC in the series “clinical” (human, in vivo, 80 mg) came to 216 ng·h/mL. Moreover, in “clinical” (human, in vivo, 90 mg), the AUC stood at 340 ng·h/mL; the “SN-38 terminal half-life, mean (s.d.)” value is 22.13 ? 13.28 h; the half-life was 22.1 ± 13.3 h. Besides, the “AUC of SN-38” value in series [1] (single-agent CPT-11 50 mg m-2) is listed as 117 ng ml-1 x hours. Besides, in series [1] (single-agent CPT-11 125 mg m-2), the “AUC of SN-38” value is recorded as 252 ng ml-1 x hours.

Consider `CN1[C@@H]2C[C@@H](OC(=O)[C@H](CO)c3ccccc3)C[C@H]1[C@@H]1O[C@@H]12` [scopolamine], for which the “response of grade 3 diarrhea to antidiarrheal agent” value (“response of grade 3 diarrhea” for short) in series [2] is “refractory”.

As for `CN1[C@@H]2CC[C@H]1C[C@@H](OC(=O)C(CO)c1ccccc1)C2` (stereo partly drawn) [atropine], the “response of grade 3 diarrhea” value in series [2] is “refractory”.

For the compound `CCc1c2c(nc3ccc(OC(=O)N4CCC(N5CCCCC5)CC4)cc13)-c1cc3c(c(=O)n1C2)COC(=O)[C@]3(O)CC` [CPT-11, Irinotecan], the “Elimination of CPT-11 from plasma” value in the series “clinical” (after completion of infusion, two-compartment model) is listed as “biphasic”. In the series on advanced lung cancer (all 14 patients), the “patients showing disease progression” value is listed as “none”. For the same compound, in the series with advanced lung cancer (all 14 patients), the “patients showing no change” value is “Eight”. For the same compound, the overall response rate with advanced lung cancer (all 14 patients, CPT-11 60-90 mg m-2 plus cisplatin 60 mg m-2) turned out to be 43%. Also, the Response duration is 85 days and 170 days in the series with advanced lung cancer (setting [5]); 98 days in the series with advanced lung cancer (setting [7]). Besides, the Time to remission was 42 days and 44 days in the series with advanced lung cancer (setting [5]); 30 days with advanced lung cancer (setting [7]). Moreover, the “No. of responders (%), response rate” value in the series on advanced lung cancer (dose level 1: CPT-11 60 mg m-2 plus cisplatin 60 mg m-2, two of three patients) is given as 67%; with advanced lung cancer (dose level 2: CPT-11 80 mg m-2 plus cisplatin 60 mg m-2, three of eight patients), 38%; in the series with advanced lung cancer (dose level 3: CPT-11 90 mg m-2 plus cisplatin 60 mg m-2, one of three patients) it was 33%. Also, the “Response duration, median (range)” value is reported as 158 (92-208) days with advanced lung cancer (setting [6]) and 128 (85-208) days in the series with advanced lung cancer (total, all dose levels). In addition, the “Time to remission, median (range)” value with advanced lung cancer (setting [6]) is 41 (30-42) days; in the series on advanced lung cancer (total, all dose levels), 42 (30-44) days. In addition, the partial responses in the series on advanced lung cancer (five of 14 patients) amounted to 36%. The “response rate for NSCLC” value in the series with advanced lung cancer (four of 12 patients) is 33%. In the series on advanced lung cancer (one of 14 patients), the complete response is 7%. The “complete response, stage IIIB disease” value in the series with advanced lung cancer (one of seven patients) was determined as 14%. Moreover, the “overall response rate, stage IIIB disease” value in the series with advanced lung cancer (seven patients) amounted to 43%. For the same compound, the “partial response, stage IV disease” value in the series with advanced lung cancer (three of seven patients) came to 43%. Also, the “partial responses, stage IIIB disease” value with advanced lung cancer (two of seven patients) turned out to be 29%. Further, the “response rate for SCLC” value in the series on advanced lung cancer (two of two patients) came out at 100%. Also, the “Grade 3 leukopenia, percentage of courses” value was 33% in series [3] (CPT-11 60 mg m-2 plus cisplatin 60 mg m-2), 15% in series [3] (setting [9]) and 0% in series [3] (setting [11]). Moreover, the results for the “ECOG grade 3 or 4 diarrhea: number of patients exhibiting toxicity in the first course” value in series [3] (setting [8]) and in series [3] (setting [10]) were 0 and 2, respectively. The “ECOG grade 3 or 4 leukopenia: number of patients exhibiting toxicity in the first course” value is given as 2 in series [3] (setting [8]); 2 in series [3] (setting [10]); 0 in series [3] (CPT-11 90 mg m-2 plus cisplatin 60 mg m-2, 3 patients). Further, the “ECOG grade 3 or 4 diarrhea: no. of courses exhibiting toxicity in all courses” value in series [3] (CPT-11 60 mg m-2 plus cisplatin 60 mg m-2, 9 courses) is 0; in series [3] (CPT-11 80 mg m-2 plus cisplatin 60 mg m-2, 20 courses) it was 3. For the same compound, the “grade 4 diarrhea” value in series [3] (setting [9]) and in series [3] (setting [11]) was “no grade 4 diarrhea” throughout. Further, in series [3] (CPT-11 80 mg m-2 plus cisplatin 60 mg m-2, forced cessation of CPT-11 on day 15), the “skin rash (grade 1), number of patients” value was “one”. Besides, the “grade 3 diarrhea, percentage of cycles” value in series [3] (CPT-11 80 mg m-2 plus cisplatin 60 mg m-2, three of 20 cycles) turned out to be 15%. Also, in series [3] (CPT-11 80 mg m-2 plus cisplatin 60 mg m-2, two of eight patients), the “grade 3 diarrhea, percentage of patients” value stood at 25%. Besides, the dose-limiting toxicity result in series [3] (CPT-11 90 mg m-2 dose level plus cisplatin 60 mg m-2) is “diarrhea”. The “duration of grade 3 diarrhea” value in series [3] (setting [11]) lay in the range of 2 to 3 weeks. In series [3] (CPT-11 i.v. days 1, 8, 15 plus cisplatin 60 mg m-2 day 1, every 28 days), the “maximum tolerated dose of CPT-11” value was 90 mg m-2. Further, in series [3] (setting [12]), the leukocyte nadir was roughly 21 days. Moreover, the “recovery from leukocyte nadir in most patients” value in series [3] (setting [12]) is no more than 29 days. In addition, the “recommended dose for Phase II studies” value in series [3] (CPT-11 days 1, 8, 15 plus cisplatin day 1 at 4-week intervals) worked out at 80 mg m-2. Also, the “Grade 3 leukopenia, number of patients” value in series [3] (all dose levels, CPT-11 60-90 mg m-2 plus cisplatin 60 mg m-2, 14 patients) is “five”. In series [3] (all dose levels, CPT-11 60-90 mg m-2 plus cisplatin 60 mg m-2, 33 courses), the “Grade 3 leukopenia, number of cycles” value is listed as “six”. Besides, in series [3] (setting [13]), the Hematologic toxicity entry is given as “relatively mild”. In addition, the “grade 4 leukopenia, patients” value in series [3] (setting [13]) is given as “none”. Besides, the “hepatic, renal, or pulmonary toxicity” value in series [3] (setting [13]) is “no evidence”. Also, the “Grade 3 nausea and vomiting, percentage of courses” value in series [3] (all dose levels, 10 of 33 courses) worked out at 30%. In addition, the “Grade 2 alopecia, percentage of courses” value in series [3] (all dose levels, 15 of 33 courses) amounted to 45%. Also, the “Transient eosinophilia ( > 10%), percentage of courses” value in series [3] (all dose levels, seven of 33 courses) is listed as 21%. In addition, the “Grade 3 anaemia, percentage of courses” value in series [3] (all dose levels, two occasions in 33 courses) is recorded as 6%. Also, in series [4] (CPT-11 days 1, 8, 15 combined with 80 mg m-2 cisplatin day 1, 4-week intervals, advanced NSCLC), the response rate is 54%. For the same compound, the dose-limiting toxicities entry in series [4] (combined with 80 mg m-2 cisplatin) was “leukopenia and diarrhea”. Besides, the “recommended dose of CPT-11” value in series [4] (in combination with 80 mg m-2 of cisplatin, days 1, 8, 15) was 60 mg m-2. Moreover, the “AUC of CPT-11” value in series [1] (50 mg m-2) was 2.97 ytg ml-' x hours; in series [1] (100 mg m-2), 6.37 ytg ml-' x hours; in series [1] (125 mg m-2), 9.17 ytg ml-' x hours; in series [1] (150 mg m-2), 11.29 ytg ml-' x hours. Moreover, the “dose intensity achieved as a single agent” value in series [1] (weekly intravenous infusion) is on record as 100 mg m-2 per week.

For `COc1ccc2c3c1O[C@H]1[C@@H](O)C=C[C@H]4[C@@H](C2)N(C)CC[C@@]341` [codeine phosphate], the “response of grade 3 diarrhea” value in series [2] is “resistant”.

As for albumin tannate, the “response of grade 3 diarrhea” value in series [2] is “refractory”.

As for sandostatin, the “effect on grade 3 diarrhea induced by CPT-11 plus cisplatin” value in series [2] (50-100 ug subcutaneously t.i.d. for at least 2 days, three patients) is reported as “ineffective”.
